Several values for one entry are separate records, joined by “and”; a condition that tells them apart may be missing. Equal values may be shown once. Read-outs that look alike come from different tables or passages of the source.
Experiments:
[1] = tested on: NanoLuc-PEST expressing L. mexicana axenic amastigotes; assay: microbe, parasite or virus in culture; assay type: cell-based; conditions: for EC90: read-out: EC90 against amastigotes, Axenic
[2] = tested on: L. mexicana NanoLuc-PEST intramacrophage amastigotes; assay: Bioluminescence-based intramacrophage assay in THP-1 infection model; assay type: cell-based; conditions: for EC50: read-out: EC50 against amastigotes, Intramacrophage; for EC90: read-out: EC90 against amastigotes, Intramacrophage
HepG2 = conditions: read-out: HepG2 CC50; ref MMV Pathogen Box website; cited from earlier work
[3] = tested on: L. mexicana intramacrophage amastigotes; design: method as in PMID 14695832; conditions: values in brackets ref 52, read-out: Previous EC50, intramacrophage amastigotes; cited from earlier work
[4] = Leishmania mexicana, THP-1 infection model, bioluminescence

Compound	Relative Bioluminescence (%) ([1]; 2 µM compound, 72 hours, relative to DMSO only control, n = 4)	Relative Bioluminescence (%) ([1]; 10 µM compound, 72 hours, relative to DMSO only control, n = 4)	EC50 ([1]; hit compounds from the axenic amastigote screen, S3 Table, read-out: EC50, Axenic Amastigotes)	EC50 ([1]; read-out: EC50 against amastigotes, Axenic)	EC90 [1]	EC50 [2]	EC90 [2]	EC50 (THP-1 cell line)	CC50 (HepG2)	viability at 2 µM ([1]; Leishmania mexicana, 2 µM compound, 72 hours, relative to DMSO only control, n = 4, read-out: Relative Bioluminescence (%))	viability at 10 µM ([1]; Leishmania mexicana, 10 µM compound, 72 hours, relative to DMSO only control, n = 4, read-out: Relative Bioluminescence (%))	EC50 ([1]; Leishmania mexicana, hit compounds from the axenic amastigote screen, S3 Table, read-out: EC50, Axenic Amastigotes)	EC50 ([1]; Leishmania mexicana, read-out: EC50 against amastigotes, Axenic)	EC90 ([1]; Leishmania mexicana)	EC50 [2, 4]	EC90 [2, 4]	EC50 [3]
CCc1c(C)nc(-n2nc(C)cc2NC(=O)c2ccccc2SC)[nH]c1=O [MMV676477]	-0.98%	-0.92%	0.07 µM	0.069 µM	0.168 µM	4.78 µM	6.11 µM	> 50 µM	1.3 µM								
CC(C)(C)[C@H]1CC[C@H](CC2=C(O)C(=O)c3ccccc3C2=O)CC1 [MMV689480, Buparvaquone, reference compound]										-0.24%	0.15%	0.0022 µM	0.002 µM	0.011 µM	0.394 µM	1.26 µM	1.25 µM and 1.44 µM

From paper PMC6057649, “Development of NanoLuc-PEST expressing Leishmania mexicana as a new drug discovery tool for axenic- and intramacrophage-based assays” (PLoS Neglected Tropical Diseases, 2018)
